# Test results as given in patent publication US6627732B1, “Glutathione derivatives and their dosage forms” (Teijin Limited, priority 1998, dated 2003).
# How the values were obtained:
# [1] = tested on: swine liver esterase; test: Decomposition of glutathione derivatives by swine liver esterase (physiological stability); format: in vitro ADME; details: BSA/D-PBS pH 7.4, 196-244 μg/ml
# Experimental: (1) Bovine serum albumin (hereinafter referred to as BSA), Dulbecco's phosphate buffered saline (hereinafter referred to as D-PBS), swine liver esterase, and rabbit liver esterase were purchased from Sigma, 6-week old male SD rats were purchased from Nippon SLC, and 12-week old or older male Japanese white rabbits were purchased from Ichikawaya. On the day of the incubation experiment described below, blood was drawn from the animals in the presence of heparin, and plasma was separated therefrom for use. Human plasma was obtained from normal healthy males after obtaining their consent.
# (2) The glutathione derivatives described in the Examples and Comparative Examples of the present invention were incubated for a fixed time in an enzyme solution having the following composition. Acetonitrile was added to the reaction mixture to inactivate the enzyme thereby to stop the reaction. The concentration of the glutathione derivatives in the deproteinized supernatant was measured by HPLC. For each time point of the esterase enzyme experiment, the mean values from two measurement or more were determined, and for the rats and rabbits the mean values of plasma samples from three individuals were determined. For some of the experiment data, changes with time of percentages relative to initial concentration of the glutathione derivative are shown in FIGS. 2 to 4.
# Swine liver esterase and rabbit liver esterase experiment
# 30 mg-BSA/ml-D-PBS (pH 7.4): 36 to 45 parts
# Swine or rabbit liver esterase/D-PBS: 4-5 parts
# 10 mg-glutathione derivative/ml-ethanol: one part (the final concentration in the reaction mixture is 196-244 μg/ml)
# [2] = tested on: swine liver esterase; test: Decomposition by swine liver esterase with and without fat emulsion (Example 22); format: in vitro ADME; details: for Decomposition rate constant in the absence of the fat emulsion: alcohol solution with physiological saline; for Decomposition rate constant in the presence of the fat emulsion: fat emulsion added at 15 (v/v)%
# Experimental: The glutathione derivative combined with a fat emulsion was incubated with swine liver esterase to compare the resistance to decomposition.
# Thereupon, the concentration of the glutathione derivatives of Comparative Examples 1 and 2 in the fat emulsion were each adjusted to 1 mg/ml.
# After incubation for a fixed time in a similar manner to that in Example 19, the content of the glutathione derivative was quantitated by HPLC. As the control experiment, an alcohol solution of the glutathione derivative of Example 4, Comparative Example 1 or 2 was added to the esterase reaction mixture together with physiological saline for adjustment of the total volume, and incubated similarly and analyzed by HPLC.
# (3) Since a linear disappearance curve was observed as in Example 19, each decomposition rate constant was determined and was compared, which was summarized in Table 6.
# [3] = Pharmacokinetics after intravenous administration to rabbits, 2-compartment model (Example 25); format: in vivo, rabbit; details: iv auricular vein 2 ml/kg, fat emulsion (Comparative Ex. 1: HPCD/glucose solution)
# Description: For the glutathione derivative of the present invention having a long-chain ester having 12 carbons or more and the glutathione derivatives of the conventional technology of Comparative Examples 1 and 2, kinetics in the blood were compared in rabbits that are a species having allow esterase activity in the blood.
# (1) Male Japanese white rabbits, 12-week old or older, were purchased from Ichikawaya, and those rabbits that became 15-week old or older and whose body weight reached about 3 kg were used for the experiment. During the period up to the experiment, the animals were allowed free access to the animal feed and drinking water and were kept at a temperature of 24±2° C. and a humidity of 55±5%.
# (2) The glutathione derivative having a long-chain ester of 12 carbons or more and the glutathione derivative of Comparative Example 2 were prepared at 20-200 mg/ml in a mixture of ethanol or ethanol:benzyl alcohol, which was mixed with the fat emulsion just prior to use, and was filtered with a 1.2 μm filter to obtain a liquid for intravenous administration. On the other hand, the glutathione derivative of Comparative Example 1 was dissolved in an aqueous solution of 6%-hydroxypropyl-β-cyclodextrin/5%-glucose at 15 mg/ml to obtain an administration liquid.
# (3) The administration liquid of the glutathione derivative obtained in (2) at a dose of 2 ml/kg was rapidly infused into the left auricular vein of the rabbits under no anesthesia and under restraint at a rate of 1 ml/min. Each glutathione derivative was given to three or more rabbits. At 5, 10, 15, 30, 60, 120, and 240 minutes after the completion of the administration, 1 ml of the blood was drawn from the right auricular vein in the presence of heparin, which was immediately cooled on ice. Plasma was obtained by centrifuging the blood, 1-2 volume parts of acetonitrile was added to deproteinize the supernatant, which was filtered by a 0.5 μm filter. The supernatant of the filtrate was quantitated by HPLC.
Decomposition rate constant by swine liver esterase [1],Ratio of decomposition rate constant (in the presence of the fat emulsion/physiological saline) [2],Decomposition rate constant in the absence of the fat emulsion [2],Decomposition rate constant in the presence of the fat emulsion [2],Compound,Clearance per body weight [3],Distribution volume per body weight of the central compartment [3]
121 10^−4/unit/min,0.609,1.206 × 10^−2 /unit/min,7.343 × 10^−3 /unit/min,"CCOC(=O)[C@@H](N)CCC(=O)N[C@@H](CSCc1ccccc1)C(=O)N[C@@H](C(=O)OCC)c1ccccc1.Cl [Comparative Example 1, Glu(Cys(Bzl)-D-Phg-O(Et))-O(Et)hydrochloride, reference compound]",254.5 mL/min/kg,0.80 L/kg
364 10^−4/unit/min,0.454,3.638 × 10^−2 /unit/min,1.650 × 10^−2 /unit/min,"CCCCCCCCOC(=O)[C@H](NC(=O)[C@H](CSCc1ccccc1)NC(=O)CC[C@H](N)C(=O)OCC)c1ccccc1.Cl [Comparative Example 2, Glu(Cys(Bzl)-D-Phg-O(Octyl))-O(Et)hydrochloride, reference compound]",156 mL/min/kg,4.18 L/kg
0.466 10^−4/unit/min,0.185,1.100 × 10^−4 /unit/min,2.033 × 10^−5 /unit/min,"CCCCCCCCCCCCCCCCOC(=O)[C@@H](N)CCC(=O)N[C@@H](CSCc1ccccc1)C(=O)N[C@@H](C(=O)OCC)c1ccccc1.Cl [Example 4, Glu(Cys(Bzl)-D-Phg-OEt)-O(Hexadecyl)hydrochloride]",3.33 mL/min/kg,0.06 L/kg
